Literature values, collected in article PMC8050614 (Journal of bone and mineral research : the official journal …, 2019).

Legend:
young wild-type mice = settings: 8 weeks of treatment
wild-type mice = settings: injection at 50 nmol/kg

| Compound | osteoclast size and/or number (young wild-type mice) | serum CTX1 (young wild-type mice) | hypercalcemic response (wild-type mice) |
| --- | --- | --- | --- |
| NCCCC(O)(P(=O)(O)O)P(=O)(O)O [alendronate] | increase | decrease |  |
| hPTH(1–34)NH2 |  |  | frank hypercalcemic response |
